Structures are written as SMILES. Active and inactive are the calls of the source. The rule behind the calls is not given here.

Activity data for 8 compounds are collected here from ChEMBL document CHEMBL3044700, “Molecular modeling and protection against pentylenetetrazole-induced seizure of new 1,4-dihydropyridines containing 5(4)-imidazolyl substituent” (Med Chem Res, 2012).

The test system of test [1] is Mus musculus. Kind of test: Anticonvulsant activity in Mus musculus NMRI (mouse) assessed as protection against pentylenetetrazole-induced seizures at 20 mg/kg, ip administered 30 min prior to pentylenetetrazole induction relative to vehicle-treated control. It counts as functional, organism-based. Details: dose 20 mg/kg.
In test [2] the test system is Mus musculus. Kind of test: Anticonvulsant activity in Mus musculus NMRI (mouse) assessed as protection against pentylenetetrazole-induced seizures at 5 to 20 mg/kg, ip administered 30 min prior to pentylenetetrazole induction relative to vehicle-treated control. It counts as functional, organism-based.

For `COC(=O)C1=C(C)NC(C)=C(C(=O)OC)C1c1ccccc1[N+](=O)[O-]`, in the test with Mus musculus [1], the outcome was Active.

In the case of `CCc1nc(C2C(C(=O)OCCc3ccccc3)=C(C)NC(C)=C2C(=O)OCCc2ccccc2)c(Cl)[nH]1`, the result in the test on Mus musculus [2] was Active.

Regarding `CC1=C(C(=O)OCCCc2ccccc2)C(c2nc[nH]c2Cl)C(C(=O)OCCCc2ccccc2)=C(C)N1`, the outcome in the test on Mus musculus [2] was Active. For the compound `CCc1nc(C2C(C(=O)OCc3ccccc3)=C(C)NC(C)=C2C(=O)OCc2ccccc2)c(Cl)[nH]1`, in the test with Mus musculus [2], the result was Active. As to `CC1=C(C(=O)OCc2ccccc2)C(c2nc[nH]c2Cl)C(C(=O)OCc2ccccc2)=C(C)N1`, the outcome with Mus musculus [2] was Active. As for `CCc1nc(C2C(C(=O)OC)=C(C)NC(C)=C2C(=O)OCCc2ccccc2)c(Cl)[nH]1` (stereo not drawn), in the test with Mus musculus [2], the result was Active. As to `CCOC(=O)C1=C(C)NC(C)=C(C(=O)OCCc2ccccc2)C1c1nc(CC)[nH]c1Cl` (stereo not drawn), the outcome in the test on Mus musculus [2] was Active.

With `CC1=C(C(=O)OCCc2ccccc2)C(c2nc[nH]c2Cl)C(C(=O)OCCc2ccccc2)=C(C)N1`, the outcome with Mus musculus [2] was Active.
